US20230346889A9, “TREATMENT OF ACUTE HEART FAILURE” (AnaCardio R&D AB, priority 2019, published 2023)
Entries after “also recorded” stand apart in the source; their conditions may differ.

Key:
[1] = system: patients with advanced CHF and reduced EF; assay: Trial QTc interval (12-lead ECG, Bazett); format: in vivo, human
Method: A plethysmographic based (finger-cuff) approach was used to measure blood pressure (Nexfin®, BMEYE B.V., Amsterdam, The Netherlands). Nexfin was also used for heart rate monitoring. Heart rate and blood pressure data were measured continuously, beat-by-beat, throughout the study protocol. The data was then averaged over 15 minutes following the Innocor measurements. In addition EKG was assessed before start of and during infusion at 60 and 120 minutes and after the ad lib lunch. QT intervals were measured in the precordial lead V5 in 12-lead surface ECGs, at 50 mm/sec paper speed and 10 mm/mV amplitude. Heart rate corrected QT intervals (QTc) were manually calculated with the Bazett formula, QTc=QT/RR^1/2, using the RR interval preceding the measured QT interval. The mean QTc from 3 heart beats was recorded.
The difference in change in heart rate between the groups was quantified. Bradycardia was defined as a reduction in heart rate of >15 beats per minute, to a heart rate <40 beats per minute, an increase in PQ time by >20 ms, or AV block II-III. In individual patients, tachycardia was defined as an increase in heart rate by >10 beats per minute or heart rate >110 beats per minute. Ventricular extraystoles were quantified and ventricular tachycardia was defined as non-sustained if ≥3 beats in a row up to ≤30 seconds, and sustained if >30 seconds. Supra-ventricular arrhythmia was defined as ectopic atrial tachycardia, atrial flutter or atrial fibrillation, or AV-nodal tachycardia of >3 seconds duration. Ghrelin may […] hERG channels and as such cause a prolongation of the QTc interval on the EKG, which theoretically could predispose to arrhythmia. Therefor we monitored QTc.

[2] = Plasma acyl ghrelin pharmacokinetics (custom ELISA); format: in vivo, human
Method: In samples dedicated for ghrelin measurements a protease inhibitor cocktail was prepared, consisting of 5.5 μl 10 mM KR-62436 (DPP4 inhibitor) in DMSO and a SIGMAFAST® protease inhibitor tablet (both produced by Sigma-Aldrich Corp., St. Louis, Mo., USA) dissolved in 2100 μl of distilled water (50×stock). Blood samples were drawn using 6 mL EDTA plasma tubes, immediately put on ice and 160 μl of the 50×protease inhibitor cocktail was added. Tubes were vortexed for 10 seconds and centrifuged at 4° C., 10 min, 2500 relative centrifugal force (RCF, or g). The resulting supernatant (plasma) was then pipetted into Eppendorf tubes (450 μl each) and immediately frozen at −70° C. until analyzed.
Plasma concentrations of active (acylated) ghrelin were assayed by a custom ELISA using electrochemiluminescence detection. Plasma samples were thawed and vortexed. They were then analyzed in duplicate on 96-well multispot plates (Meso Scale Diagnostics, Rockville, Md., USA) coated with capture antibodies against acyl-ghrelin according to manufacturer instructions. The Meso Scale Diagnostics Sector Imager 2400 was used to read the plates. The coefficients of variation (CV %) calculated from plasma concentrations after curve fitting were 9.3/3.5 (intra/inter-assay CV %). The lower limit of detection was 3.2 ng/L and upper limit was set at 10,000 ng/L.

[3] = system: isolated cardiomyocytes from SHAM and HF mice; assay: Cytosolic Ca2+ transients and cell shortening in isolated cardiomyocytes; format: cell-based, mouse; details: for cardiomyocyte fractional shortening (FS): 15 min ghrelin exposure, 100 nM, sham and post-MI HF mice; for cardiomyocyte Ca2+ transients (amplitude): SHAM and HF mice, vs placebo
Description: Twelve-week old C57BL6 mice were anesthetized with gas mixture of oxygen and isoflurane (2-3%). Myocardial infarction (MI) was induced in mice by permanent ligation of the left coronary artery, as previously described (Perrino et al., 2013). Briefly, mice underwent thoracotomy and subsequent left coronary ligation; ˜80% survived during the follow-up period (4-6 weeks). SHAM-operated animals underwent the same procedure without coronary artery ligation (SHAM). At study termination, after sedation, mice were euthanized through cervical dislocation.
After euthanasia, single cardiomyocytes were isolated from the left and right ventricles (mouse hearts are dominated by left ventricles) and atria were excluded, following the protocols developed by the Alliance for Cellular Signalling (AfCS Procedure Protocol ID PP00000 125) as previously described (Pironti et al., 2016).
Mouse cardiomyocytes were incubated with a cell permeable form of fluorescent indicators Fluo-3 AM followed by washing for >5 min as previously described (Andersson et al., 2011). Cardiomyocytes were plated on laminin coated glass bottom dishes. The dishes were placed in a custom built perfusion/stimulation chamber and continuously perfused with O2/CO2 (95/5%) bubbled Tyrode solution with the following composition (in mM): NaCl 121, KCl 5.0, CaCl2 1.8, MgCl2 0.5, NaH2PO4 0.4, NaHCO3 24, EDTA 0.1, glucose 5.5. The cardiomyocytes were stimulated to contract using an electrical field between two platinum electrodes attached to the perfusion/stimulation chamber. […] Fluorescence was measured using a confocal microscope Bio-Rad MRC 1024 unit attached to a Nikon Diaphot inverted microscope (40-60×oil immersion lenses). Confocal images were analyzed off line using ImageJ (National Institutes of Health; available at http://rsb.info.nih.gov/ij). Line scan confocal images were obtained from paced cardiomyocytes with the line scan running along the long axis of the cell. Changes in the emitted fluorescence, representing changes in free cytoplasmic Ca^2+, were quantified. The amplitude of Ca^2+ transients was measured as the change in the fluo-3 fluorescence signal (F) divided by the fluorescence immediately before a stimulation pulse given under control conditions (FO). Ca^2+ transient decay time constant (Tau) was quantified by fitting the decay to an exponential decay function in the GraphPad Prism software (La Jolla, Ca, USA). Fractional cell shortening was calculated from the line scan images as the fractional change in the cell length at rest and during maximal contraction.
The myocytes were superfused with physiological buffer (Tyrode solution) or for the pharmacological experiments Tyrode+Ghrelin (100 nM) or D-Lys 3 (D-Lys 3 GHS-R1a antagonist 3 μM). All cells were perfused for 15 min with respective solution before measurements, except in some experiments where D-Lys 3 (3 μM) was introduced in perfusion system 10 minutes before adding Ghrelin. All experiments were performed at room temperature (˜24° C.).
The myocytes were superfused with physiological buffer (Tyrode solution) with or without Ghrelin (Bachem, Bubendorf, Switzerland) (100 nM). All cardiomyocytes were superfused for 15 min with respective solution before measurements. An antagonist against the ghrelin receptor GHS-r1a (D-Lys 3; 3 μM), was used in some experiments. In those experiments, D-Lys 3 was introduced in superfusion system 10 minutes before adding Ghrelin.

[4] = After infusion, prior to discharge

CCCCCCCC(=O)OC[C@H](NC(=O)[C@H](CO)NC(=O)CN)C(=O)N[C@@H](Cc1ccccc1)C(=O)N[C@@H](CC(C)C)C(=O)N[C@@H](CO)C(=O)N1CCC[C@H]1C(=O)N[C@@H](CCC(=O)O)C(=O)N[C@@H](Cc1cnc[nH]1)C(=O)N[C@@H](CCC(N)=O)C(=O)N[C@@H](CCCNC(=N)N)C(=O)N[C@H](C(=O)N[C@@H](CCC(N)=O)C(=O)N[C@@H](CCC(N)=O)C(=O)N[C@@H](CCCNC(=N)N)C(=O)N[C@@H](CCCCN)C(=O)N[C@@H](CCC(=O)O)C(=O)N[C@@H](CO)C(=O)N[C@@H](CCCCN)C(=O)N[C@@H](CCCCN)C(=O)N1CCC[C@H]1C(=O)N1CCC[C@H]1C(=O)N[C@@H](C)C(=O)N[C@@H](CCCCN)C(=O)N[C@@H](CC(C)C)C(=O)N[C@@H](CCC(N)=O)C(=O)N1CCC[C@H]1C(=O)N[C@@H](CCCNC(=N)N)C(=O)O)C(C)C [Ghrelin]
Maximal QTc prolongation from baseline ([1]; 2-5 days after): +47 ms | Median (interquartile range) changes in QTc from baseline ([1]; 2-5 days after): −4 (−34 to +4) ms | Maximal QTc prolongation from baseline [1, 4]: +47 ms | Median (interquartile range) changes in QTc from baseline [1, 4]: +18 (−10 to +30) ms | Maximal QTc prolongation from baseline ([1]; During infusion, 60 minutes): +36 ms | Median (interquartile range) changes in QTc from baseline ([1]; During infusion, 60 minutes): +4 (−7 to +21) ms | Maximal QTc prolongation from baseline ([1]; During infusion, 120 minutes): +45 ms | Median (interquartile range) changes in QTc from baseline ([1]; During infusion, 120 minutes): +8 (−4 to +26) ms | change in QTc ([1]; in vivo): nominal but not significant increase | plasma acyl ghrelin ([2]; 2-5 days follow-up): normalized | plasma acyl ghrelin ([2]; 30 minutes after infusion): near normalized | median plasma acyl ghrelin concentrations ([2]; during infusion, treatment group): quickly reached near the maximum of the assay | level at 0.5 h ([2]; human, plasma, 0.1 ug/kg/min, Infusion 30 min, iv 0.1 μg/kg/min, read-out: plasma acyl ghrelin (median, interquartile range)): 6.11 ng/mL | level at 1 h ([2]; human, plasma, iv, 0.1 ug/kg/min, Infusion 60 min, read-out: plasma acyl ghrelin (median, interquartile range)): 6.84 ng/mL | level at 2 h ([2]; human, plasma, iv, 0.1 ug/kg/min, Infusion 120 min, read-out: plasma acyl ghrelin (median, interquartile range)): 6.54 ng/mL | kinetics of Ca2+ transients (ROI and Tau) [3]: did not affect | cardiomyocyte fractional shortening (FS) [3]: increases contractility | cardiomyocyte fractional shortening (FS) ([3]; listed as ghrelin): increased compared to placebo | cardiomyocyte Ca2+ transients (amplitude) [3]: did not differ | cardiomyocyte Ca2+ transients (amplitude) ([3]; listed as ghrelin): not different; also recorded: no difference
